# Assays:
# [1] = system: Enterococcus faecalis ATCC 29212; test: MBC assay; format: cell-based; conditions: ATCC29212
# Description: (§1) This assay, normally carried out after an MIC assay, determines the minimum concentration of a compound that is lethal to the micro-organism being tested.
# (§2) These samples were then individually sub-cultured on antibiotic-free agar medium, under the incubation conditions described above. Following incubation they were examined visually for microbial growth.
# [2] = system: Streptococcus pyogenes ATCC 12344; test: MBC assay; format: cell-based
# Description: as §1, §2
# [3] = system: Porphyromonas gingivalis ATCC BAA-308; test: MIC assay; format: cell-based; conditions: ATCCBAA308
# Description: (§3) The P. gingivalis strains were cultured and maintained on Wilkins-Chalgren Anaerobe Medium (agar and broth) at pH 7.0; all cultures were incubated anaerobically at 37° C. for 5-7 days.
# (§4) This is a standard international method for quantitatively assessing the antimicrobial activity of a compound in a liquid medium. The method used a sterile 96-well microtitre plate, capable of holding about 200 μl of liquid per well. The wells contained liquid culture medium and ranges of decreasing concentrations of the relevant test compound in doubling dilutions (e.g. 1000, 500, 250, 125 . . . μg/ml, etc. down to 0.49 μg/ml). The culture media were as described above.
# (§5) The wells were inoculated with a liquid suspension of freshly grown micro-organism and incubated under the conditions described above. After incubation, the microtitre plate was examined visually (with the aid of a light box) for cloudiness in each well, which would indicate microbial growth. The MIC value was recorded as the lowest concentration of test compound required to inhibit microbial growth, i.e. the lowest concentration for which the liquid in the well remained clear.
# (§6) The assays included both negative (culture medium with no micro-organisms) and positive (culture medium plus diluting solvent plus micro-organism) controls.
# [4] = system: Porphyromonas gingivalis ATCC 53978; test: MIC assay; format: cell-based; conditions: ATCC53978
# Description: as §3, §4, §5, §6
# [5] = system: Porphyromonas gingivalis NCTC 11834; test: MIC assay; format: cell-based; conditions: NCTC11834
# Description: as §3, §4, §5, §6
# P. granulosum PPR-006 = test: Agar dilution MIC assay; format: cell-based, Propionibacterium granulosum; conditions: Propionibacterium, PPR006
# Description: (§7) The propionibacteria were cultured and maintained on Wilkins-Chalgren Anaerobe Medium (agar and broth) at pH 6.0; all cultures were incubated anaerobically at 37° C. for 72 hours.
# (§8) This is a standard international method for quantitatively assessing the antimicrobial activity of a compound in a solid medium. The test compound was prepared to 40× the highest concentration required (e.g. 10 mg/ml for a final concentration of 250 μg/ml) and a series of doubling dilutions were performed in a suitable solvent. A set amount of these antimicrobial stock solutions was then added to molten agar medium (ca. 55° C.), mixed thoroughly, poured into sterile Petri dishes and allowed to cool/set. The culture medium was as described above.
# (§9) A Multipoint™ Inoculator (AQS Manufacturing Ltd, UK) was used to inoculate the plates by spotting the inocula onto the surface of the agar, delivering approximately 1 to 2 μl per spot (yielding 10^5 CFU (colony forming units) per spot).
# The plate(s) were then incubated under the conditions described above, following which they were examined visually for signs of bacterial growth. The MIC value was ascertained when there was a marked reduction in, or total loss of, growth on the test plate at the lowest concentration as compared to that of the growth on the control plate. […]
# P. granulosum PRP-055 = test: Agar dilution MIC assay; format: cell-based; conditions: Propionibacterium, PRP055, resistance phenotype None
# Description: as §7, §8, §9
# (§10) The plate(s) were then incubated under the conditions described above, following which they were examined visually for signs of bacterial growth. The MIC value was ascertained when there was a marked reduction in, or total loss of, growth on the test plate at the lowest concentration as compared to that of the growth on the control plate.
# (§11) The assays were conducted in triplicate and included a positive control (culture medium, diluting solvent and inoculum).
# P. granulosum PRP-021 = test: Agar dilution MIC assay; format: cell-based; conditions: Propionibacterium, PRP021, resistance phenotype MLS
# Description: as §7, §8, §9, §10, §11
# [6] = system: Propionibacterium acnes NCTC 737; test: Agar dilution MIC assay; format: cell-based; conditions: Cutibacterium acnes, NCTC737, resistance phenotype None
# Description: as §7, §8, §9, §10, §11
# [7] = system: Propionibacterium granulosum NCTC 11865; test: Agar dilution MIC assay; format: cell-based; conditions: NCTC11865, resistance phenotype None
# Description: as §7, §8, §9, §10, §11
# P. granulosum PRP-044 = test: Agar dilution MIC assay; format: cell-based; conditions: Propionibacterium, PRP044, resistance phenotype MLS
# Description: as §7, §8, §9, §10, §11
# P. granulosum PRP-019 = test: Agar dilution MIC assay; format: cell-based; conditions: Propionibacterium, PRP019, resistance phenotype MLSK
# Description: as §7, §8, §9, §10, §11
# P. granulosum PRP-005 = test: Agar dilution MIC assay; format: cell-based; conditions: Propionibacterium, PRP005, resistance phenotype MLSK
# Description: as §7, §8, §9, §10, §11
# P. granulosum PRP-043 = test: Agar dilution MIC assay; format: cell-based; conditions: Propionibacterium, PRP043, resistance phenotype MLS
# Description: as §7, §8, §9, §10, §11
# S. aureus NCTC 12493 = test: MBC assay; format: cell-based, Staphylococcus aureus
# Description: (§12) The staphylococci were cultured and maintained on Mueller-Hinton Medium (agar and broth) at pH 7.2; cultures were incubated aerobically at 37° C. for 19-20 hours.
# as §1, §2
# S. aureus ATCC 12604 = test: MBC assay; format: cell-based, Staphylococcus aureus
# Description: as §12, §1, §2
# S. aureus CPHL EMRSA 16 = test: MBC assay; format: cell-based, Staphylococcus aureus; conditions: resistance phenotype Met/β-lactams
# Description: as §12, §1, §2
# [8] = system: S. aureus CPHL GISA HO41340156; test: MBC assay; format: cell-based, Staphylococcus aureus; conditions: resistance phenotype Van/Tec (intermediate)
# Description: as §12, §1, §2
# S. aureus NCTC 12981 = test: MBC assay; format: cell-based, Staphylococcus aureus
# Description: as §12, §1, §2
# S. aureus CPHL EMRSA 17 = test: MBC assay; format: cell-based, Staphylococcus aureus; conditions: resistance phenotype Met/β-lactams
# Description: as §12, §1, §2
# S. aureus ATCC 12607 = test: MBC assay; format: cell-based, Staphylococcus aureus
# Description: as §12, §1, §2
# S. aureus ATCC 12601 = test: MBC assay; format: cell-based, Staphylococcus aureus
# Description: as §12, §1, §2
structure (smiles),measurement,setting,value
"Cc1cc(Cc2cc(C)cc(C(C)(C)C)c2O)c(O)c(C(C)(C)C)c1 [AO 2246, 2,2′-methylene-bis(4-methyl-6-tert-butylphenol)]",MBC,[1]; Enterococcus faecalis ATCC 29212,7.8 µg/mL
same,MIC/MBC Ratio,[1]; Enterococcus faecalis,0.25
same,MIC/MBC Ratio,[2],1
same,MBC,[2]; ATCC12344,0.98 µg/mL
same,MIC,[3],3.9 µg/mL
same,MIC,[4],0.98 µg/mL
same,MIC,[5],3.9 µg/mL
same,MIC,P. granulosum PPR-006,1.95 µg/mL
same,MIC,P. granulosum PRP-055,3.9 µg/mL
same,MIC,P. granulosum PRP-021,3.9 µg/mL
same,MIC,[6],3.9 µg/mL
same,MIC,[7],1.95 µg/mL
same,MIC,P. granulosum PRP-044,3.9 µg/mL
same,MIC,P. granulosum PRP-019,3.9 µg/mL
same,MIC,P. granulosum PRP-005,3.9 µg/mL
same,MIC,P. granulosum PRP-043,1.95 µg/mL
same,MIC/MBC Ratio,"S. aureus NCTC 12493; S. aureus NCTC 12493, resistance phenotype Met",0.5
same,MBC,"S. aureus NCTC 12493; Staphylococcus aureus, NCTC12493",1.95 µg/mL
same,MIC/MBC Ratio,S. aureus ATCC 12604,0.5
same,MBC,"S. aureus ATCC 12604; Staphylococcus aureus, ATCC12604",3.9 µg/mL
same,MBC,S. aureus CPHL EMRSA 16; Staphylococcus aureus,7.8 µg/mL
same,MIC/MBC Ratio,S. aureus CPHL EMRSA 16,0.25
same,MBC,[8]; Staphylococcus aureus,3.9 µg/mL
same,MIC/MBC Ratio,[8],0.5
same,MIC/MBC Ratio,S. aureus NCTC 12981,0.25
same,MBC,"S. aureus NCTC 12981; Staphylococcus aureus, NCTC12981",7.8 µg/mL
same,MBC,S. aureus CPHL EMRSA 17; Staphylococcus aureus,7.8 µg/mL
same,MIC/MBC Ratio,S. aureus CPHL EMRSA 17,0.25
same,MIC/MBC Ratio,S. aureus ATCC 12607,0.25
same,MBC,"S. aureus ATCC 12607; Staphylococcus aureus, ATCC12607",7.8 µg/mL
same,MIC/MBC Ratio,S. aureus ATCC 12601,1
same,MBC,"S. aureus ATCC 12601; Staphylococcus aureus, ATCC12601",1.95 µg/mL

# From patent publication US20100172854A1, “ANTIBACTERIAL FORMULATIONS” (priority 2007, published 2010)
